Tests used:
[1] = tested on: COS-7 cells expressing wild type Na+,K+-ATPase; experiment: Cell attachment on fibronectin, wild type transfected cells; assay type: cell-based, monkey; details: different concentrations of ouabain, 0 to 1.0 mM, FIG. 2
Experimental: (§1) Cell attachment on fibronectin coted substrates was assayed in microtiterwells (Costar). All wells were preincubated over night at 4° C. with 5 microg/ml concentration of fibronectin. Before adding cells, each well was preincubated with 1% BSA for 30 min in 37° C. and later washed with serum free DMEM. Untransfected COS-7 cells and COS-7 cells expressing wild type or L799C Na+,K+-ATPase were grown in a 3 microCi/ml H3-thymidine containing medium supplemented with 10% fetal calf serum and harvested after approximately 72 hours at 60-80% confluence. Approximately 25,000 cells /wells were seeded in serum free DMEM. Cells were first incubated 15 min with different concentrations of oubain and then allowed to attach to fibronectin (5 μg/ml) coated substrates during 30 min of incubation in 37° C. and later washed with serum free DMEM. Radioactivity was measured in a Wallac Scintillation counter. Results are presented as % remaining radioactivity compared to untreated.

[2] = tested on: LLC-PK1 cells transfected with mutated (L799C and/or L801C) rat Na+,K+-ATPase alpha1 subunit; experiment: Survival study, transfected LLC-PK1 cells
Na+,K+-ATPase = experiment: Pilot studies, total Na+,K+-ATPase of transfected cells; assay type: biochemical; details: 10^-5 M ouabain, 10 µM
Experimental: (§2) Cells were lysed by treatment with 1 mM Tris-HCl pH 7.5 on ice for 15 min and a crude membrane fraction was prepared as described (Horiuchi, A., Takeyasu, K., Mouradian, M., Jose, P and Felder, R (1993) Mol. Phamiacol. 43, 281-285). The membrane fraction was frozer, in aliquots and stored over-night at -70° C.

[3] = tested on: untransfected COS-7 cells; experiment: Cell attachment on fibronectin, untransfected cells; assay type: cell-based, monkey; details: different concentrations of ouabain, 0 to 1.0 mM, FIG. 2
Experimental: as §1

[4] = biological target: T1, wild type rat Na+,K+-ATPase a1 subunit (Rattus norvegicus, UniProt P06685); experiment: Na+,K+-ATPase-dependent ATP hydrolysis, natural enzyme; assay type: biochemical
T1 construct: expressed in transfected cells; crude membrane fraction
Experimental: as §2

[5] = tested on: ouabain-sensitive (endogenous) Na+,K+-ATPase; experiment: Pilot studies, ouabain-sensitive enzyme population; assay type: biochemical
Experimental: as §2

[6] = biological target: T2, Leu799Cys (L799C) rat Na+,K+-ATPase a1 subunit (Rattus norvegicus, UniProt P06685, L800C); experiment: Na+,K+-ATPase-dependent ATP hydrolysis, mutated enzyme; assay type: biochemical
T2 construct: expressed in transfected cells; crude membrane fraction
Experimental: as §2

[7] = tested on: cells transfected with wild type rat Na+,K+-ATPase a1; experiment: Cell survival in ouabain medium, wild type transfected cells; details: 500 μM ouabain
[8] = tested on: cells transfected with mutant rat Na+,K+-ATPase a1; experiment: Cell survival in ouabain medium, mutant transfected cells
[9] = tested on: cells with mutated murine and human NKA alpha 1-subunit; details: read-out: IC50 for ouabain; cells with a mutation in murine and human NKA alpha 1-subunit, Cantley et al 1994; cited from earlier work
[10] = tested on: COS-7 cells expressing L799C Na+,K+-ATPase; experiment: Cell attachment on fibronectin, L799C transfected cells; assay type: cell-based, monkey; details: different concentrations of ouabain, 0 to 1.0 mM, FIG. 2
Experimental: as §1

C[C@@H]1O[C@@H](O[C@H]2C[C@@H](O)[C@]3(CO)[C@H]4[C@H](O)C[C@]5(C)[C@@H](C6=CC(=O)OC6)CC[C@]5(O)[C@@H]4CC[C@]3(O)C2)[C@H](O)[C@H](O)[C@H]1O [ouabain]
cell attachment to fibronectin coated substrates [1]: loss of attachment
growing and morphological characteristics of the cells ([2]; as high as 500×10^-6 M ouabain): did not seem to alter
cell survival, multiplication and exterior ([2]; ouabain concentrations up to 500 μM): survive, multiply and keep their natural exterior
share of Na+,K+-ATPase resistant to ouabain (Na+,K+-ATPase): Approximately 60%
cell attachment to fibronectin coated substrates [3]: loss of attachment
cell attachment to fibronectin coated substrates ([3]; listed as oubain): decreased dose dependent
inhibition at 2000 µM [4]: 85 to 90%
IC100 ([4]; read-out: ouabain concentration that completely inhibited the enzyme population, pilot studies, ouabain-insensitive (transfected) wild type enzyme): 5000 µM
ouabain concentration that completely inhibited the enzyme population [5]: 10^-5 M
inhibition of the enzyme ([6]; ouabain concentrations up to 2 mM): no significant inhibition
activity at 2000 µM ([6]; read-out: (Na,K)-ATPase activity in percent in comparison with not treated): ~100%
cell survival [7]: died and died within a few days
ouabain concentration survived by the cells [8]: at least 1×10^-3 M
cell survival ([8]; longtime treatment with 500 μM ouabain): survived
IC50 [9]: ~5 mM
cell attachment to fibronectin coated substrates [10]: no change in attachment
